This note sets out measurements from patent US5015631A, “Repairing agent for cells and tissues” (MECT Corporation, priority 1987, dated 1991).

One data set in a line: Stability versus pH. In kind it is physicochemical.
The subject of data set [1] is nasal mucous membranes of rats. Nature of the data set: Acute disappearance of cilia from nasal mucous membranes of rats and degeneration of the epithelium induced by exposure to sulfur dioxide. As to Disappearance of epithelium: key: -: Unchanged; +: Slight; ++: Moderate change; +++: Severe. As to Monolayer squamous metaplasia of epithelium: key: -: Unchanged; +: Slight; ++: Moderate change; +++: Severe. As to disappearance of cilia: key: -: Unchanged; +: Slight; ++: Moderate change; +++: Severe. The format is in vivo, Male Wistar rats. Particulars: for Disappearance of cilia / Disappearance of epithelium / Monolayer squamous metaplasia of epithelium: per animal. On the procedure: The effects of test samples on acute disappearance of cilia from nasal mucous membranes of rats and the degeneration of the epithelium induced by exposure to sulfur dioxide:
Male Wistar rats weighing 180 to 200 g were used.
(§1) Sodium N-acetylneuraminate (a product of MECT Corporation) was used.
The rats were exposed to 400 ppm of sulfur dioxide for 4 hours. 30 minutes after the exposure, the rats were caused to inhale the test sample or physiological saline as follows:
Group I: inhalation of 300 mg/m^3 of sodium N-acetylneuraminate for 1 hour.
Group II: inhalation of 100 mg/m^3 of sodium N-acetylneuraminate for 1 hour.
Group III: inhalation of 20 ml/m^3 of the physiological saline for 1 hour.
Each group comprised 5 rats.
24 hours after the inhalation of the materials or physiological saline, the rats were killed and their intranarial changes were examined by a microscopic observation and the results were compared with one another.

Data set [2] relates to nasal mucous membrane of rabbits. Nature of the data set: Subacute disappearance of cilia from nasal mucous membrane of rabbits and degeneration of the epithelium induced by exposure to sulfur dioxide. As to disappearance of cilia: key: -: Unchanged; +: Slight; ++: Moderate change; +++: Severe. The format is in vivo, Male New Zealand White rabbits. As to the method:
Effects on subacute disappearance of cilia from nasal mucous membrane of rabbits and degeneration of the epithelium thereof induced by exposure to sulfur dioxide:
Male New Zealand White rabbits weighing 1.8 to 2.2 kg were used.
as §1
The rabbits were exposed to sulfur dioxide by means of a sulfur dioxide-exposing apparatus for 2 hours a day continuously for 5 weeks. The sulfur dioxide concentrations were 70 to 150 ppm in the first and second weeks and 200 to 300 ppm in the third to fifth weeks. After the third week, the inhalation of the material or physiological saline by means of an ultrasonic nebulizer (TUR-3200: a product of Nippon Koden Co., Ltd.) was made immediately before the exposure to sulfur dioxide.
Group I: inhalation of 25 mg/kg of sodium N-acetylneuraminate for 2 minutes.
Group II: inhalation of 1 ml of physiological saline for 2 minutes.
Each group comprised six rabbits.
Five weeks after completion of the exposure to sulfur dioxide, the rabbits were killed by venesection and the intranarial changes of them were examined by a microscopic observation and the results were compared with one another.

The next data set deals with mice. Put plainly: Acute toxicity test in mice. As to conditions: male, 20160 min. The format is in vivo. On the procedure: (§2) The acute toxicity tests of sodium N-acetylneuraminate to mice, rats and guinea pigs given by oral administration or subcutaneous injection, intraperitoneal injection, intravenous injection or inhalation, were conducted as follows:
(§3) 20 w/v % (solution in distilled water)

In another data set the test system is rats. Nature of the data set: Acute toxicity test in rats. The format is in vivo. As to the method:
as §2, §3
In the inhalation, the subjects were exposed to a spray of the compound o

Setting [3] is: Group I: inhalation 300 mg/m^3 for 1 hour.
Where [4] appears, read: Group II: inhalation 100 mg/m^3 for 1 hour.
Setting [5] is: Group I: inhalation 25 mg/kg for 2 minutes, per animal.

Where two headings read alike, the source gives them in different places.

`CC(=O)N[C@H]1[C@H]([C@H](O)[C@H](O)CO)OC(O)(C(=O)[O-])C[C@@H]1O.[Na+]` (some centres unmarked): the “pH range of greatest stability” value in “Stability versus pH” is on record as 5.5 to 6.0. Also, the Disappearance of cilia entry was “++ and +” in data set [1] (setting [3]); “+ and - and ++” in data set [1] (setting [4]); “- and + and ++” in data set [2] (setting [5]). Moreover, the Disappearance of epithelium result in data set [1] (setting [3]) and in data set [1] (setting [4]) was “-” each time. Further, the “Monolayer squamous metaplasia of epithelium” value in data set [1] (setting [3]) and in data set [1] (setting [4]) was “-” each time. For the same compound, in data set [1] (Groups I and II (300 and 100 mg/m^3), compared with Group III (physiological saline)), the “Intranarial changes” value was “only the disappearance of cilia was observed and the degree of the disappearance was lower than that of Group III”. Further, the “Inhibition of acute disappearance of cilia, monolayer squamous metaplasia and disappearance of epithelium / degeneration of nasal mucous membranes” value in data set [1] (sulfur dioxide exposure, rats) is “remarkable effect of inhibiting”. For the same compound, the “Squamous metaplasia of epithelium, comparison of groups” value in data set [2] (Group I (25 mg/kg) versus Group II (physiological saline)) is listed as “more serious in Group II than in Group I”. Moreover, in data set [2] (setting [5]), the “Squamous metaplasia of epithelium” value was “- and + and ++”. For the same compound, the “Inhibition of subacute disappearance of cilia and squamous metaplasia of epithelium / repair of cells and tissues of nasal mucous membranes” value in data set [2] (sulfur dioxide exposure, 25 mg/kg inhalation) is listed as “remarkable effect of inhibiting”. Also, the LD50 with mice (intraperitoneal) was > 5,000 mg/kg; in the data set with mice (intravenous) it was > 5,000 mg/kg; in the data set with mice (oral), > 5,000 mg/kg; in the data set on mice (subcutaneous), > 5,000 mg/kg; in the data set with rats it was > 5,000 mg/kg; in the data set with rats (rats, female, inhalation, spray for one hour), > 4,000 mg/m^3. In addition, the LD50 in the data set with rats (rats, male, inhalation, spray for one hour) is listed as > 4,000 mg/m^3; in the data set with rats (rats, male, intraperitoneal, 20160 min), > 5,000 mg/kg; in the data set with rats (rats, male, intravenous, 20160 min), > 5,000 mg/kg; with rats (rats, male, oral, 20160 min), > 5,000 mg/kg.
